From US8686022B2, “7-(piperazine-1-ymethyl)-1H-indole-2-carboxylic acid (phenyl)-amide derivatives and allied compounds as p38 MAP kinase inhibitors for the treatment of respiratory diseases” (Boehringer Ingelheim International GmbH, priority 2008, dated 2014)
Converted amounts (≈) assume the structure as drawn.

Legend:
[1] = Determining the solubility (saturated solution in McIlvaine buffer pH 7.4, UV spectroscopy); assay type: physicochemical; settings: pH 7.4, aqueous buffer, thermodynamic from solid, shaken 2 hours, 0.75 mg solid in 0.75 ml
Protocol: Determining the Solubility:
Saturated solutions are prepared in suitable well dishes by adding 0.75 ml of a McIlvaine buffer (pH 7.4) to the well in question containing 0.75 mg of solid of an active substance. The wells are shaken for 2 hours and then filtration is carried out through a suitable filter membrane (typically polytetrafluoroethylene with a pore size of 0.45 μm). Filter absorption is prevented by discarding the first few drops of filtrate. The amount of active substance dissolved is determined by UV spectroscopy.

p38 MAP-kinase = p38 MAP-kinase (Homo sapiens, UniProt Q16539); assay: p38 MAP-kinase enzymatic assay (phosphorylation of GST-tagged ATF2, chemoluminescence); assay type: biochemical; settings: inhibitor concentration 1 μM; activated p38 MAP-kinase 1 nM; ATP 100 μM; read-out: p38 (% Inh @ 1 μM)
Protocol: In this, the amount of a substrate phosphorylated by the kinase is quantified. The test is carried out as follows:
The kinase reaction is carried out in the presence of HEPES (20 mM, pH 7), MgCl2 (10 mM), DTT (1 mM) and TWEEN20 (0.01%). First, dimethylsulphoxide or inhibitor (final concentration: 1 μM) dissolved in dimethylsulphoxide are placed in a reaction vessel. Then the activated p38 MAP-kinase (final concentration 1 nM) is added and the mixture is incubated for 4 h at ambient temperature. Then a mixture of substrate (GST-tagged ATF2) and ATP is added and everything is incubated together for a further hour (final concentration ATP: 100 μM; final concentration ATF2: 10 nM).
The concentration of phosphorylated ATF2 is quantified by chemoluminescence-induced light emission. For this, a glutathione donor bead (final concentration: 5 μg/ml) which binds to the gluthathione on the ATF2 and phospho-ATF2 antibodies are added to the reaction mixture (final concentration: 3 nM; this binds the phosphate group added by the kinase reaction) to which a Protein A Acceptor Bead (final concentration: 5 μg/ml) binds. These components are dissolved in a buffer which contains 20 mM HEPES pH 7.0, 200 mM NaCL, 80 mM EDTA as well as 0.3% BSA. This reaction mixture is incubated in the dark for 1 hour at ambient temperature. When these beads come physically close, visible light is emitted which is measured in a photometer at 520-620 nm.
To determine the inhibitory activity of the compounds according to the invention a calculation is made to determine the percentage by which the kinase activity is inhibited at a fixed inhibitor concentration of 1 μM. The maximum activity is determined by non-inhibited kinase. The minimum activity or nonspecific background activity is determined using a reaction mixture without kinase.
Table 2 summarises the degree of inhibition of the enzyme p38 MAP-kinase—as described hereinbefore—mediated by the compounds according to the invention detailed in the section “Preparation of the final compounds”.

cytochrome P450 2C9 = cytochrome P450 2C9 (Homo sapiens, UniProt P11712); assay: Determining the cyp2C9 activity (O-demethylation of [O-methyl-14C]-naproxen); assay type: in vitro ADME; settings: human recombinant cytochrome P450 2C9; 37° C.; <0.4 μM when inhibition >50% at lowest concentration; read-out: CYP 2C9 IC50
Protocol: Determining the cyp2C9 Activity:
The assay is carried out in a robot system with 96-well plates. The final incubation volume is 200 μl of TRIS-Puffer (0.1 M), magnesium chloride (5 mM), recombinant protein (40 pmol/ml), ^14C-labelled naproxen (80 μM) and the test compound in one of 4 concentrations (50 μM, 10 μM, 2 μM and 0.4 μM) as a duplicate in each case. After a short preincubation period the reactions are started by the addition of the cofactor (NADPH, 1 mM) and ended after 15 min by the addition of 50 μl of a 10% aqueous trichloroacetic acid solution. One aliquot of the incubate is transferred onto a 96-well solid phase extraction plate and extracted. The ^14C-formaldehyde formed during the reaction is not retained on the solid phase extraction plate and is thus separated from the unmetabolised substrate by washing the solid phase extraction plate with water. One aliquot of the eluate is transferred into a well plate suitable for liquid scintillation. […] The IC50 is determined by the least squares method using the following formula: control activity=(100% control activity/(1+(I/IC50)S))−B where I=Inhibitor concentration S=Pitch B=Background activity
When the inhibition of the reaction is >50% even at the lowest concentration of the test compound, the IC50 is given as <0.4 μM.

Sequence of p38 MAP-kinase (Q16539 whole entry): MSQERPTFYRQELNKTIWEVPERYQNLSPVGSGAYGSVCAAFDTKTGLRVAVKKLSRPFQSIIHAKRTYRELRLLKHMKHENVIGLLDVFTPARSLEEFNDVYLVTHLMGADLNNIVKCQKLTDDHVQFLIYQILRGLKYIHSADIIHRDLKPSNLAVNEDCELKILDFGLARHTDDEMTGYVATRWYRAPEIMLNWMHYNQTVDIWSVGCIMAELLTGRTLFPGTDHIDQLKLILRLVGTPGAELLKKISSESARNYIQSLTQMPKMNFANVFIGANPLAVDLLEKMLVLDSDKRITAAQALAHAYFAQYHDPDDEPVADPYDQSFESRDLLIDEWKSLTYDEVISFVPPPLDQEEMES
Sequence of cytochrome P450 2C9 (P11712 whole entry): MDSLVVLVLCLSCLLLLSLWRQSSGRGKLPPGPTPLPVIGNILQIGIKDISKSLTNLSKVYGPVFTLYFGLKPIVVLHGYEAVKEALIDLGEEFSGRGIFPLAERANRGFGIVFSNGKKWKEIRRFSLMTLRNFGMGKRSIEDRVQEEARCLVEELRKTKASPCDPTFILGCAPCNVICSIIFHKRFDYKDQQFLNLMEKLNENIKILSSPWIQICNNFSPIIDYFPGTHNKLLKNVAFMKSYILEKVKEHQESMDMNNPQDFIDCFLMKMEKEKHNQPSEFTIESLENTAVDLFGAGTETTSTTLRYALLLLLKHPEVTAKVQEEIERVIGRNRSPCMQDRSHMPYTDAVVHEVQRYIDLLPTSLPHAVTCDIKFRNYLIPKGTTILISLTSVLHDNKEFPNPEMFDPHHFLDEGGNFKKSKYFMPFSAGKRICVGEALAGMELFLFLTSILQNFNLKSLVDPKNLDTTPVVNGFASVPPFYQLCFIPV

Row | Compound | solubility at 2 h [1] [µg/mL] | inhibition at 1 µM (p38 MAP-kinase) [%] | IC50 (cytochrome P450 2C9) [µM]
1 | COc1c(NC(=O)c2cc3cccc(CN4CCN(C(=O)CN5CC[C@@H](N(C)C)C5)CC4)c3n2C)cc(C(C)(C)C)cc1NS(C)(=O)=O [6(2), (R)-7-{4-[2-(3-dimethylamino-pyrrolidin-1-yl)-acetyl]-piperazin-1-ylmethyl}-1-methyl-1H-indole-2-carboxylic acid-(5-tert-butyl-3-methanesulphonylamino-2-methoxy-phenyl)-amide] | > 1000 | 98.9 | 0.7
2 | COc1c(NC(=O)c2cc3cccc(CN4CCN(C(=O)CN5CC[C@H](N(C)C)C5)CC4)c3n2C)cc(C(C)(C)C)cc1NS(C)(=O)=O [6(3), (S)-7-{4-[2-(3-dimethylamino-pyrrolidin-1-yl)-acetyl]-piperazin-1-ylmethyl}-1-methyl-1H-indole-2-carboxylic acid-(5-tert-butyl-3-methanesulphonylamino-2-methoxy-phenyl)-amide] | 910 (≈ 1330 µM) | 98.5 | 2.93
3 | COc1c(NC(=O)c2cc3cccc(CN4CCCN(C(=O)C5CCN(C)CC5)CC4)c3n2C)cc(C(C)(C)C)cc1NS(C)(=O)=O [8(1), 1-methyl-7-[4-(1-methyl-piperidine-4-carbonyl)-[1,4]diazepan-1-ylmethyl]-1H-indole-2-carboxylic acid-(5-tert-butyl-3-methanesulphonylamino-2-methoxy-phenyl)-amide] | 120 (≈ 180 µM) | 98.1 | 6.48
4 | COc1c(NC(=O)c2cc3cccc(CN4CCN(C(=O)[C@@H]5CCCN5C)CC4)c3n2C)cc(CC(C)C)cc1NS(C)(=O)=O [8(2), (S)-1-methyl-7-[4-(1-methyl-pyrrolidine-2-carbonyl)-piperazin-1-ylmethyl]-1H-indole-2-carboxylic acid-(5-isobutyl-3-methanesulphonylamino-2-methoxy-phenyl)-amide] | 120 (≈ 188 µM) | 99.5 | 5.77
5 | COc1c(CN(C(C)C)C(C)C)cc(C(C)(C)C)cc1NC(=O)c1cc2cccc(CN3CCN(C(=O)[C@@H]4CCCN4C)CC3)c2n1C [9(1), (S)-1-methyl-7-[4-(1-methyl-pyrrolidine-2-carbonyl)-piperazin-1-ylmethyl]-1H-indole-2-carboxylic acid-{5-tert-butyl-3-[(diisopropylamino)-methyl]-2-methoxy-phenyl}-amide] | 570 (≈ 865 µM) | 95.8 | 6.7
6 | CCN(CC)Cc1cc(C(C)(C)C)cc(NC(=O)c2cc3cccc(CN4CCN(C(=O)[C@@H]5CCCN5C)CC4)c3n2C)c1OC [9(2), (S)-1-methyl-7-[4-(1-methyl-pyrrolidine-2-carbonyl)-piperazin-1-ylmethyl]-1H-indole-2-carboxylic acid-(5-tert-butyl-3-diethylaminomethyl-2-methoxy-phenyl)-amide] | 860 (≈ 1360 µM) | 98.2 | 7.76
7 | COc1c(CN2CCCC(N(C)C)C2)cc(C(C)(C)C)cc1NC(=O)c1cc2cccc(CN3CCN(C(=O)[C@@H]4CCCN4C)CC3)c2n1C (stereo partly drawn) [9(3), 1-methyl-7-[4-((2S)-1-methyl-pyrrolidine-2-carbonyl)-piperazin-1-ylmethyl]-1H-indole-2-carboxylic acid-[5-tert-butyl-3-(3-dimethylamino-piperidin-1-ylmethyl)-2-methoxy-phenyl]-amide] | 700 (≈ 1020 µM) | 98.9 | 6.84
8 | CCN(CC)C1CCN(Cc2cc(C(C)(C)C)cc(NC(=O)c3cc4cccc(CN5CCN(C(=O)[C@@H]6CCCN6C)CC5)c4n3C)c2OC)C1 (stereo partly drawn) [9(4), 1-methyl-7-[4-((2S)-1-methyl-pyrrolidine-2-carbonyl)-piperazin-1-ylmethyl]-1H-indole-2-carboxylic acid-[5-tert-butyl-3-(3-diethylamino-pyrrolidin-1-ylmethyl)-2-methoxy-phenyl]-amide] | 690 (≈ 986 µM) | 98 | 8.11
9 | COc1c(CN2CCC(N(C)C)CC2)cc(C(C)(C)C)cc1NC(=O)c1cc2cccc(CN3CCN(C(=O)[C@@H]4CCCN4C)CC3)c2n1C [9(5), (S)-1-methyl-7-[4-(1-methyl-pyrrolidine-2-carbonyl)-piperazin-1-ylmethyl]-1H-indole-2-carboxylic acid-[5-tert-butyl-3-(4-dimethylamino-piperidin-1-ylmethyl)-2-methoxy-phenyl]-amide] | 490 (≈ 714 µM) | 97.5 | 6.88
10 | CCN(CC)C1CCN(Cc2cc(C(C)(C)C)cc(NC(=O)c3cc4cccc(CN5CCN(C(=O)[C@@H]6CCCN6C)CC5)c4n3C)c2OC)CC1 [9(6), (S)-1-methyl-7-[4-(1-methyl-pyrrolidine-2-carbonyl)-piperazin-1-ylmethyl]-1H-indole-2-carboxylic acid-[5-tert-butyl-3-(4-diethylamino-piperidin-1-ylmethyl)-2-methoxy-phenyl]-amide] | 470 (≈ 658 µM) | 97.7 | 10.4
11 | COc1c(CN2CCN(C(C)C)CC2)cc(C(C)(C)C)cc1NC(=O)c1cc2cccc(CN3CCN(C(=O)[C@@H]4CCCN4C)CC3)c2n1C [9(7), (S)-1-methyl-7-[4-(1-methyl-pyrrolidine-2-carbonyl)-piperazin-1-ylmethyl]-1H-indole-2-carboxylic acid-[5-tert-butyl-3-(4-isopropyl-piperazin-1-ylmethyl)-2-methoxy-phenyl]-amide] | 880 (≈ 1280 µM) | 98.8 | 44.7
12 | COc1c(NC(=O)c2cc3cccc(CN4CCN(C(=O)[C@@H]5CCCN5C)CC4)c3n2C)cc(C(C)(C)C)cc1C(=O)NC(C)C [10(1), (S)-1-methyl-7-[4-(1-methyl-pyrrolidine-2-carbonyl)-piperazin-1-ylmethyl]-1H-indole-2-carboxylic acid-(5-tert-butyl-3-isopropylcarbamoyl-2-methoxy-phenyl)-amide] | 380 (≈ 602 µM) | 99.1 | 1.29
13 | CCNC(=O)c1cc(C(C)(C)C)cc(NC(=O)c2cc3cccc(CN4CCN(C(=O)[C@@H]5CCCN5C)CC4)c3n2C)c1OC [10(2), (S)-1-methyl-7-[4-(1-methyl-pyrrolidine-2-carbonyl)-piperazin-1-ylmethyl]-1H-indole-2-carboxylic acid-(5-tert-butyl-3-ethylcarbamoyl-2-methoxy-phenyl)-amide] | 390 (≈ 632 µM) | 99.4 | 0.46
14 | CNC(=O)c1cc(C(C)(C)C)cc(NC(=O)c2cc3cccc(CN4CCN(C(=O)[C@@H]5CCCN5C)CC4)c3n2C)c1OC [10(3), (S)-1-methyl-7-[4-(1-methyl-pyrrolidine-2-carbonyl)-piperazin-1-ylmethyl]-1H-indole-2-carboxylic acid-(5-tert-butyl-2-methoxy-3-methylcarbamoyl-phenyl)-amide] | 590 (≈ 979 µM) | 99.3 | 1.6
15 | COc1c(NC(=O)c2cc3cccc(CN4CCN(C(=O)[C@@H]5CCCN5C)CC4)c3n2C)cc(C(C)(C)C)cc1C(N)=O [10(4), (S)-1-methyl-7-[4-(1-methyl-pyrrolidine-2-carbonyl)-piperazin-1-ylmethyl]-1H-indole-2-carboxylic acid-(5-tert-butyl-3-carbamoyl-2-methoxy-phenyl)-amide] | 370 (≈ 628 µM) | 99.1 | 0.44
